Results as given in PMC10017709, “Structural basis of selective cannabinoid CB2 receptor activation” (Nature Communications, 2023).
“And” between values parts separate entries of the source, which are not always exact repeats. Identical values can stand only once.

Experiments:
[1] = target: T1, CB1R D266ECL2E (Homo sapiens, UniProt P21554, D266E); assay: [3H]CP55,940 displacement assay, CB1R D266E mutant; type: binding
T1 construct: The WT CB1R and CB2R genes were subcloned into vector pcDNA3.1; HA signal peptide (N); expressed in transfected cells; host or cells: HEK293T (transient, membrane homogenates)
T1 sequence (P21554 whole entry D266E): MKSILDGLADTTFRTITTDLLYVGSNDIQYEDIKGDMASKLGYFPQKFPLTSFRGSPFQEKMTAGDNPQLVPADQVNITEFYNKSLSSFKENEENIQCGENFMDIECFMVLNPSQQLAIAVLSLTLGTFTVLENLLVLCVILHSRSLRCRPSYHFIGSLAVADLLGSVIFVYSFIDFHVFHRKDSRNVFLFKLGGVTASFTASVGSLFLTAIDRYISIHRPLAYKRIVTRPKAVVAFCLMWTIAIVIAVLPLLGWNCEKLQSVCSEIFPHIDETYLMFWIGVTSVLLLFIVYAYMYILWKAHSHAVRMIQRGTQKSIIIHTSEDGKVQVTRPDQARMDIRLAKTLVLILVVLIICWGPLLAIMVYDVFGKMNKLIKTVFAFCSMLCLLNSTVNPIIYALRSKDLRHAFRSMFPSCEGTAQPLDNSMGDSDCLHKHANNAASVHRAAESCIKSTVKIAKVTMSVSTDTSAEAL

[2] = target: hCB1R WT (Homo sapiens, UniProt P21554); assay: [35S]GTPγS G protein activation assay, CB1R WT; type: biochemical; settings: CB1R WT; 10 µM agonist
hCB1R WT, sequence (P21554 whole entry): as the sequence (P21554 whole entry D266E) above, with E266D counted along it

[3] = target: T2, CB2R-Quadruple^TM1,7 (Homo sapiens, UniProt P34972, C40S/K279T/K33Q/V36I); assay: [35S]GTPγS assay, CB2R quadruple mutant; type: biochemical; settings: for [35S]GTPγS binding: QuadrupleTM1,7, individual replicates
T2 sequence (P34972 whole entry K33Q/V36I/C40S/K279T): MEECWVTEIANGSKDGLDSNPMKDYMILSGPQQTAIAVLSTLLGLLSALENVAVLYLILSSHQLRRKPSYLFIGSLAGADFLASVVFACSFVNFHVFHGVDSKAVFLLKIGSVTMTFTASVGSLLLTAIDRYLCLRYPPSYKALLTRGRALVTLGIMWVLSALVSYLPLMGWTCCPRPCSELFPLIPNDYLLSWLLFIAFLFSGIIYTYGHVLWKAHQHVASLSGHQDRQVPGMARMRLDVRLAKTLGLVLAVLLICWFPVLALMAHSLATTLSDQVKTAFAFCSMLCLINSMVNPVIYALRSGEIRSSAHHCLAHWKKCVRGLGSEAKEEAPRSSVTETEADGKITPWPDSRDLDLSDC

[4] = target: CB2R-L185^ECL2H (Homo sapiens, UniProt P34972, L185H); assay: [35S]GTPγS assay, CB2R L185H mutant; type: biochemical; settings: L185H mutant; at 10 µM compared to WT; read-out: Emax (%)
CB2R-L185^ECL2H, sequence (P34972 whole entry L185H): as the sequence (P34972 whole entry K33Q/V36I/C40S/K279T) above, with Q33K, I36V, S40C, L185H, T279K counted along it

[5] = target: CB2R-I110^3.29L (Homo sapiens, UniProt P34972, I110L); assay: [35S]GTPγS assay, CB2R I110L mutant; type: biochemical; settings: for [35S]GTPγS binding: I1103.29L, individual replicates
CB2R-I110^3.29L, sequence (P34972 whole entry I110L): as the sequence (P34972 whole entry K33Q/V36I/C40S/K279T) above, with Q33K, I36V, S40C, I110L, T279K counted along it

[6] = target: T3, hCB2R (Homo sapiens, UniProt P34972); assay: [3H]RO6957022 displacement assay; type: binding; settings: individual replicates
T3 construct: host or cells: CHO-K1 (CHOK1_hCB2bgal, PathHunter), membranes
T3 sequence (P34972 whole entry): as the sequence (P34972 whole entry K33Q/V36I/C40S/K279T) above, with Q33K, I36V, S40C, T279K counted along it

[7] = tested on: CB1R QuadrupleTM1,7; assay: [35S]GTPγS assay, CB1R quadruple mutant; type: biochemical, human; settings: CB1R Quadruple TM1,7; 10 µM agonist
[8] = target: T4, CB1R QuadrupleTM1,7 (Homo sapiens, UniProt P21554, I119V/Q116K/S123C/T377K); assay: [3H]CP55,940 displacement assay, CB1R quadruple mutant; type: binding
T4 construct: The WT CB1R and CB2R genes were subcloned into vector pcDNA3.1; HA signal peptide (N); expressed in transfected cells; host or cells: HEK293T (transient, membrane homogenates)
T4 sequence (P21554 whole entry Q116K/I119V/S123C/T377K): as the sequence (P21554 whole entry D266E) above, with Q116K, I119V, S123C, E266D, T377K counted along it

[9] = target: CB2R WT (Homo sapiens, UniProt P34972); assay: [3H]CP55,940 displacement assay, CB2R WT; type: binding; settings: CB2R - WT, individual replicates
CB2R WT, sequence (P34972 whole entry): as the sequence (P34972 whole entry K33Q/V36I/C40S/K279T) above, with Q33K, I36V, S40C, T279K counted along it

[10] = target: T2, CB2R-Quadruple^TM1,7; assay: [3H]CP55,940 displacement assay, CB2R quadruple mutant; type: binding; settings: QuadrupleTM1,7; log [ligand] (M) -5; individual replicates

For `CC(C)(C)[C@@H](CO)NC(=O)c1nn(-c2c[n+]([O-])ccn2)c2c1C[C@@H]1C[C@H]21` [APD371], the “Displacement (%) of [3H]CP55,940” value ([1]; CB1R D266E, 10 µM compound) was 12 ± 7%, the “percentage specific [3H]CP55,940 binding” value ([1]; CB1R D266ECL2E, 10 µM ligand, replicates 1-3) was 74.46 percentage and 89.45 percentage and 99.44 percentage and the Agonist-mediated activation [2] was 1.0 ± 0.0 fold over its basal. For the same compound, the Emax ([3]; Quadruple TM1,7 mutant, at 10 µM compared to WT, read-out: Emax (%)) was 35 ± 7%, the “[35S]GTPγS binding” value ([3]; log [ligand] (M) -5) was 35.07 percentage of WT and 47.26 percentage of WT and 22.67 percentage of WT and the “[35S]GTPγS binding” value ([3]; log [ligand] (M) -6) was 15.07 percentage of WT and 38.79 percentage of WT and 23.35 percentage of WT. For the same compound, the “[35S]GTPγS binding” value ([3]; log [ligand] (M) -7) was -3.98 percentage of WT and 20.94 percentage of WT and 22.86 percentage of WT, the “[35S]GTPγS binding” value ([3]; log [ligand] (M) -8) was 22.19 percentage of WT and 25.68 percentage of WT and 22.32 percentage of WT and the “[35S]GTPγS binding” value ([3]; log [ligand] (M) -9) was -7.96 percentage of WT and -0.64 percentage of WT and 0.99 percentage of WT. The “[35S]GTPγS binding” value ([3]; log [ligand] (M) -10) was -4.29 percentage of WT and 0.80 percentage of WT and 9.16 percentage of WT, the Emax [4] was 183 ± 16% and the Emax ([5]; I110L mutant, at 10 µM compared to WT, read-out: Emax (%)) was 101 ± 7%. For the same compound, the “[35S]GTPγS binding” value ([5]; log [ligand] (M) -5) was 88.75 percentage of WT and 114.10 percentage of WT and 98.70 percentage of WT, the “[35S]GTPγS binding” value ([5]; log [ligand] (M) -6) was 65.58 percentage of WT and 82.80 percentage of WT and 68.20 percentage of WT and the “[35S]GTPγS binding” value ([5]; log [ligand] (M) -7) was 37.92 percentage of WT and 48.30 percentage of WT and 43.20 percentage of WT. The “[35S]GTPγS binding” value ([5]; log [ligand] (M) -8) was 16.04 percentage of WT and -5.10 percentage of WT and 25.10 percentage of WT, the “[35S]GTPγS binding” value ([5]; log [ligand] (M) -9) was 37.59 percentage of WT and -1.70 percentage of WT and -8.60 percentage of WT and the “[35S]GTPγS binding” value ([5]; log [ligand] (M) -10) was -2.00 percentage of WT and -5.20 percentage of WT. For the same compound, the “percentage specific [3H]RO6957022 binding (displacement)” value (shortened to “percentage specific … (displacement)”) ([6]; log [agonist] (M) -5) was 6.59% and 5.28% and -3.87%, the “percentage specific … (displacement)” value ([6]; log [agonist] (M) -6) was 1.67% and 12.98% and 3.83% and the “percentage specific … (displacement)” value ([6]; log [agonist] (M) -7) was 44.82% and 59.70% and 42.04%. The “percentage specific … (displacement)” value ([6]; log [agonist] (M) -7.5) was 76.53% and 76.83% and 76.84%, the “percentage specific … (displacement)” value ([6]; log [agonist] (M) -8) was 102.92% and 92.08% and 89.96% and the “percentage specific … (displacement)” value ([6]; log [agonist] (M) -9) was 120.09% and 94.02% and 99.12%. The Agonist-mediated activation [7] was 1.1 ± 0.0 fold over its basal, the “Displacement (%) of [3H]CP55,940” value ([8]; CB1R Quadruple TM1,7, 10 µM compound) was 0 ± 25% and the “percentage specific [3H]CP55,940 binding” value ([8]; CB1R QuadrupleTM1,7, 10 µM ligand, replicates 1-3) was 125.90 percentage and 49.87 percentage and 125.34 percentage. For the same compound, the “percentage specific [3H]CP55,940 binding” value ([9]; log [ligand] (M) -5) was 6.97% and 9.11% and 6.37%, the “percentage specific [3H]CP55,940 binding” value ([9]; log [ligand] (M) -6) was 8.91% and 9.80% and 15.97% and the “percentage specific [3H]CP55,940 binding” value ([9]; log [ligand] (M) -7) was 35.26% and 29.34% and 24.47%. The “percentage specific [3H]CP55,940 binding” value ([9]; log [ligand] (M) -8) was 67.55% and 60.65% and 76.97%, the “percentage specific [3H]CP55,940 binding” value ([9]; log [ligand] (M) -9) was 110.80% and 85.34% and 106.79% and the “percentage specific [3H]CP55,940 binding” value ([9]; log [ligand] (M) -10) was 91.01% and 87.78% and 110.76%. The “percentage specific [3H]CP55,940 binding” value [10] was -3.75% and 13.92% and 33.90%.
